Test results: patent publication US20130158075A1, “HETEROCYCLIC COMPOUNDS AS DGAT1 INHIBITORS” (PIRAMAL ENTERPRISES LIMITED, priority 2010, published 2013)
Structures can show the parent of a compound that is named as a salt.

What follows are compounds tested against T1, hDGAT1 (Homo sapiens, UniProt O75907) (assay: In-vitro DGAT1 assay with hDGAT1 microsomes from Sf9 cells (14C oleoyl CoA, scintillation counting)). Settings: read-out: Percentage inhibition of hDGAT1.
T1 construct: made in house; host or cells: Sf9 insect cells (baculovirus); microsomal fraction
T1 sequence (O75907 1-488): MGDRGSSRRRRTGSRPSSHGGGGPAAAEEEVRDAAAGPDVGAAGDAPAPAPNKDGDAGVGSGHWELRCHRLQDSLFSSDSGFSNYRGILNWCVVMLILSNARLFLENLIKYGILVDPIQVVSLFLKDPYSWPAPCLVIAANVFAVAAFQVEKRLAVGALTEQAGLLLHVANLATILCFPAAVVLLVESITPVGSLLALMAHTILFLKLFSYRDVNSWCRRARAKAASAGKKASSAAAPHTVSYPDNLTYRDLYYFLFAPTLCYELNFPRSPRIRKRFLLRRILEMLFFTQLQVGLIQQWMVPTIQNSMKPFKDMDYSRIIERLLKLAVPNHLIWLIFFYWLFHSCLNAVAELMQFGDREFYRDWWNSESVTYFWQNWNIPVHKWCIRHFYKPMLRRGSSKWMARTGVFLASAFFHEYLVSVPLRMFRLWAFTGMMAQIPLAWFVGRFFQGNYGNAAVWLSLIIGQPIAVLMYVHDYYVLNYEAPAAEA
Assay type: biochemical
Procedure, shortened: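 Radiolabelled triglyceride formation was measured: heptane extracts were scintillation-counted after a 10-min, 37 °C reaction stopped with alkaline ethanol. Enzyme was human DGAT1 in baculovirus-infected Sf9 microsomal membranes; substrates were 14C oleoyl-CoA plus dioleoylglycerol. Runs were duplicated, and inhibition (%) was related to nM compound concentration.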

SMILES	inhibition at 1 µM
NNC(=O)CC1CCC(c2ncc(-c3ccc(NC(=O)Nc4cc(F)cc(F)c4)cc3)s2)CC1 (stereo not drawn) [Example 410, 1-(3,5-Difluorophenyl)-3-(4-(2-(4-(2-hydrazinyl-2-oxoethyl)cyclohexyl)thiazol-5-yl)phenyl)urea]	> 50%
Cc1nnc(CC2CCC(c3ncc(-c4ccc(N)cc4)s3)CC2)s1 (stereo not drawn) [Example 413, 4-(2-(4-((5-Methyl-1,3,4-thiadiazol-2-yl)methyl)cyclohexyl)thiazol-5-yl)aniline]	> 50%
Cc1nnc(CC2CCC(c3ncc(-c4ccc(NC(=O)Nc5cc(F)c(F)cc5F)cc4)s3)CC2)s1 (stereo not drawn) [Example 414, 1-(4-(2-(4-((5-Methyl-1,3,4-thiadiazol-2-yl)methyl)cyclohexyl)thiazol-5-yl)phenyl)-3-(2,4,5-trifluorophenyl)urea]	> 50%
O=C(O)CN1CCC(c2ncc(-c3ccc(NC(=O)Nc4ccccc4Cl)cc3)s2)CC1 [Example 429, 2-(4-(5-(4-(3-(2-Chlorophenyl)ureido)phenyl)thiazol-2-yl)piperidin-1-yl)acetic acid]	> 50%
O=C(O)CN1CCC(c2ncc(-c3ccc(NC(=O)Nc4ccccc4F)cc3)s2)CC1 [Example 431, 2-(4-(5-(4-(3-(2-Fluorophenyl)ureido)phenyl)thiazol-2-yl)piperidin-1-yl)acetic acid]	> 50%
O=C(O)CN1CCC(c2ncc(-c3ccc(NC(=O)Nc4ccc(F)cc4F)cc3)s2)CC1 [Example 433, 2-(4-(5-(4-(3-(2,4-Difluorophenyl)ureido)phenyl)thiazol-2-yl)piperidin-1-yl)acetic acid]	> 50%
O=C(O)CN1CCC(c2ncc(-c3ccc(NC(=O)Nc4cc(F)c(F)cc4F)cc3)s2)CC1 [Example 435, 2-(4-(5-(4-(3-(2,4,5-Trifluorophenyl)ureido)phenyl)thiazol-2-yl)piperidin-1-yl)acetic acid]	> 50%
O=C(O)CN1CCC(c2ncc(-c3ccc(NC(=O)Nc4ccccc4C(F)(F)F)cc3)s2)CC1 [Example 437, 2-(4-(5-(4-(3-(2-(Trifluoromethyl)phenyl)ureido)phenyl)thiazol-2-yl)piperidin-1-yl)acetic acid]	> 50%
O=C(O)CN1CCC(c2ncc(-c3ccc(NC(=O)Nc4ccc(F)c(F)c4F)cc3)s2)CC1 [Example 439, 2-(4-(5-(4-(3-(2,3,4-Trifluorophenyl)ureido)phenyl)thiazol-2-yl)piperidin-1-yl)acetic acid]	20 to 50%
CC(C(=O)O)N1CCC(c2ncc(-c3ccc(NC(=O)Nc4cc(F)c(F)cc4F)cc3)s2)CC1 (stereo not drawn) [Example 451, 2-(4-(5-(4-(3-(2,4,5-Trifluorophenyl)ureido)phenyl)thiazol-2-yl)piperidin-1-yl)propanoic acid]	> 50%
CC(C(=O)O)N1CCC(c2ncc(-c3ccc(NC(=O)Nc4ccccc4F)cc3)s2)CC1 (stereo not drawn) [Example 453, 2-(4-(5-(4-(3-(2-Fluorophenyl)ureido)phenyl)thiazol-2-yl)piperidin-1-yl) propanoic acid]	> 50%
CC(C(=O)O)N1CCC(c2ncc(-c3ccc(NC(=O)Nc4ccccc4Cl)cc3)s2)CC1 (stereo not drawn) [Example 455, 2-(4-(5-(4-(3-(2-Chlorophenyl)ureido)phenyl)thiazol-2-yl)piperidin-1-yl)propanoic acid]	> 50%
CC(C(=O)O)N1CCC(c2ncc(-c3ccc(NC(=O)Nc4c(F)cc(F)cc4F)cc3)s2)CC1 (stereo not drawn) [Example 459, 2-(4-(5-(4-(3-(2,4,6-Trifluorophenyl)ureido)phenyl)thiazol-2-yl)piperidin-1-yl)propanoic acid]	> 50%
O=C(Nc1ccc(-c2cnc(C3CCNCC3)s2)cc1)Nc1ccccc1Cl [Example 474, 1-(2-Chlorophenyl)-3-(4-(2-(piperidin-4-yl)thiazol-5-yl)phenyl)urea hydrochloride]	20 to 50%
CC(C)(C)OC(=O)N1CCC(c2ncc(-c3ccc(NC(=O)Nc4ccccc4F)cc3)s2)CC1 [Example 475, t-Butyl 4-(5-(4-(3-(2-fluorophenyl)ureido)phenyl)thiazol-2-yl)piperidine-1-carboxylate]	20 to 50%
O=C(Nc1ccc(-c2cnc(C3CCNCC3)s2)cc1)Nc1ccccc1F [Example 476, 1-(2-Fluorophenyl)-3-(4-(2-(piperidin-4-yl)thiazol-5-yl)phenyl)urea hydrochloride]	20 to 50%
CC(C)(C)OC(=O)N1CCC(c2ncc(-c3ccc(NC(=O)Nc4ccc(F)cc4F)cc3)s2)CC1 [Example 477, t-Butyl 4-(5-(4-(3-(2,4-difluorophenyl)ureido)phenyl)thiazol-2-yl)piperidine-1-carboxylate]	20 to 50%

SMILES	inhibition at 1 µM
O=C(Nc1ccc(-c2cnc(C3CCNCC3)s2)cc1)Nc1ccc(F)cc1F [Example 478, 1-(2,4-Difluorophenyl)-3-(4-(2-(piperidin-4-yl)thiazol-5-yl)phenyl)urea hydrochloride]	20 to 50%
CC(C)(C)OC(=O)N1CCC(c2ncc(-c3ccc(NC(=O)Nc4c(F)cc(F)cc4F)cc3)s2)CC1 [Example 479, t-Butyl 4-(5-(4-(3-(2,4,6-trifluorophenyl)ureido)phenyl)thiazol-2-yl)piperidine-1-carboxylate]	20 to 50%
O=C(Nc1ccc(-c2cnc(C3CCNCC3)s2)cc1)Nc1cc(F)c(F)cc1F [Example 480, 1-(4-(2-(Piperidin-4-yl)thiazol-5-yl)phenyl)-3-(2,4,5-trifluorophenyl)urea hydrochloride]	20 to 50%
O=C(Nc1ccc(-c2cnc(C3CCN(S(=O)(=O)C(F)(F)F)CC3)s2)cc1)Nc1ccccc1F [Example 483, 1-(2-Fluorophenyl)-3-(4-(2-(1-((trifluoromethyl)sulfonyl)piperidin-4-yl)thiazol-5-yl)phenyl)urea]	20 to 50%
O=C(Nc1ccc(-c2cnc(C3CCN(S(=O)(=O)C(F)(F)F)CC3)s2)cc1)Nc1ccccc1Cl [Example 484, 1-(2-Chlorophenyl)-3-(4-(2-(1-((trifluoromethyl)sulfonyl)piperidin-4-yl)thiazol-5-yl)phenyl)urea]	20 to 50%
O=C(Nc1ccc(-c2cnc(C3CCN(S(=O)(=O)C(F)(F)F)CC3)s2)cc1)Nc1ccc(F)cc1F [Example 485, 1-(2,4-Difluorophenyl)-3-(4-(2-(1-((trifluoromethyl)sulfonyl)piperidin-4-yl)thiazol-5-yl)phenyl)urea]	20 to 50%
O=C(Nc1ccc(-c2cnc(C3CCN(S(=O)(=O)C(F)(F)F)CC3)s2)cc1)Nc1c(F)cc(F)cc1F [Example 486, 1-(4-(2-(1-((Trifluoromethyl)sulfonyl)piperidin-4-yl)thiazol-5-yl)phenyl)-3-(2,4,6-trifluorophenyl)urea]	20 to 50%
O=C(Nc1ccc(-c2cnc(C3CCN(S(=O)(=O)C(F)(F)F)CC3)s2)cc1)Nc1cc(F)c(F)cc1F [Example 487, 1-(4-(2-(1-((Trifluoromethyl)sulfonyl)piperidin-4-yl)thiazol-5-yl)phenyl)-3-(2,4,5-trifluorophenyl)urea]	20 to 50%
CS(=O)(=O)N1CCC(c2ncc(-c3ccc(NC(=O)Nc4ccccc4Cl)cc3)s2)CC1 [Example 490, 1-(2-Chlorophenyl)-3-(4-(2-(1-(methylsulfonyl)piperidin-4-yl)thiazol-5-yl)phenyl)urea]	20 to 50%
CS(=O)(=O)N1CCC(c2ncc(-c3ccc(NC(=O)Nc4ccccc4F)cc3)s2)CC1 [Example 491, 1-(2-Fluorophenyl)-3-(4-(2-(1-(methylsulfonyl)piperidin-4-yl)thiazol-5-yl)phenyl)urea]	20 to 50%
CS(=O)(=O)N1CCC(c2ncc(-c3ccc(NC(=O)Nc4c(F)cc(F)cc4F)cc3)s2)CC1 [Example 493, 1-(4-(2-(1-(Methylsulfonyl)piperidin-4-yl)thiazol-5-yl)phenyl)-3-(2,4,6-trifluorophenyl)urea]	20 to 50%
CS(=O)(=O)N1CCC(c2ncc(-c3ccc(NC(=O)Nc4cc(F)c(F)cc4F)cc3)s2)CC1 [Example 494, 1-(4-(2-(1-(Methylsulfonyl)piperidin-4-yl)thiazol-5-yl)phenyl)-3-(2,4,5-trifluorophenyl)urea]	> 50%
O=C(Nc1ccc(-c2cnc(C34CC5CC(CC(C(=O)O)(C5)C3)C4)s2)cc1)Nc1ccccc1F [Example 502, 3-(5-(4-(3-(2-Fluorophenyl)ureido)phenyl)thiazol-2-yl)adamantane-1-carboxylic acid]	> 50%
O=C(Nc1ccc(-c2cnc(C34CC5CC(CC(C(=O)O)(C5)C3)C4)s2)cc1)Nc1c(F)cccc1F [Example 506, 3-(5-(4-(3-(2,6-Difluorophenyl)ureido)phenyl)thiazol-2-yl)adamantane-1-carboxylic acid]	> 50%
O=C(Nc1ccc(-c2cnc(C34CC5CC(CC(C(=O)O)(C5)C3)C4)s2)cc1)Nc1cc(F)c(F)cc1F [Example 508, 3-(5-(4-(3-(2,4,5-Trifluorophenyl)ureido)phenyl)thiazol-2-yl)adamantane-1-carboxylic acid]	> 50%
O=C(Nc1ccc(-c2cnc(C34CC5CC(CC(C(=O)O)(C5)C3)C4)s2)cc1)Nc1ccc(F)c(F)c1F [Example 510, 3-(5-(4-(3-(2,3,4-Trifluorophenyl)ureido)phenyl)thiazol-2-yl)adamantane-1-carboxylic acid]	> 50%
